# Entries after “also recorded” stand apart in the source; their conditions may differ.
# Experiments:
# Type in all cases: cell-based
# 143B CytB cells = test: Purine nucleotide extraction and LC-MS analysis
# Protocol: 143B CytB cells were seeded at 400,000 cells/well in 6 well dishes overnight. The following day, cells were washed 2 times in PBS and media was changed to proliferation assay media with or without the indicated treatments. After 15 hours polar metabolites were extracted from cells using 250 μL of ice cold 80% methanol. After scraping the cells, 250 μL of chloroform was added before vortexing for 10 min at 4° C. and centrifugation for 10 min at 4° C. at 16,000 g, 40 μL of the top, water-methanol, layer was transferred into a LC-MS tube and samples were analyzed. A Dionex UltiMate 3000 ultra-high performance liquid chromatography system connected to a Q Exactive benchtop Orbitrap mass spectrometer, equipped with an Ion Max source and a HESI II probe (Thermo Fisher Scientific) was used to quantify metabolites. Samples were separated by chromatography by injecting 10 μL of sample on a SeQuant ZIC-pHILIC Polymeric column (2.1×150 mm 5 μM, EMD Millipore). Flow rate was set to 150 μL/min, temperatures were set to 25° C. for column compartment and 4° C. for autosampler sample tray. Mobile Phase A consisted of 20 mM ammonium carbonate, 0.1% ammonium hydroxide. Mobile Phase B was 100% acetonitrile. The mobile phase gradient (% B) was set in the following protocol: 0-20 min.: linear gradient from 80% to 20% B; 20-20.5 min.: linear gradient from 20% to 80% B; 20.5-28 min.: hold at 80% B. Mobile phase was introduced into the ionization source set to the following parameters: sheath gas=40, auxiliary gas=15, sweep gas=1, spray voltage=−3.1 kV, capillary temperature=275° C., S-lens RF level=40, probe temperature=350° C. Metabolites were monitored using full scan in negative mode in the range of 285-700 m/z, with the resolution set at 140,000, the AGC target at 106, and the maximum injection time at 250 msec. Relative quantitation of metabolites was performed with XCalibur QuanBrowser 2.2 (Thermo Fisher Scientific) using a 5 ppm mass tolerance and referencing an in-house retention time library of chemical standards.
# [1] = system: 143B WT cybrid and 143B CytB cells; test: Mitochondrial oxygen consumption (Seahorse XF24), cybrid cells; settings: presence or absence of the substance
# Protocol: Oxygen consumption rates were determined on a Seahorse Bioscience Extracellular Flux Analyzer (XF24). Cells were plated in Seahorse Bioscience 24 well plates at 6E4 cells per well in 100 μL complete DMEM, allowed to attach for 1 hour, and 500 μl complete DMEM was added before overnight incubation. The following day cells were washed 2 times in assay media: DMEM without phenol red or pyruvate containing 0.5% dialyzed FBS and 0.1 mg/mL uridine at pH 7.4 and incubated in 500 μL of the same media for the assay. Oxygen consumption measurements were compared either, between basal measurements and following injection of the compound (AKB, rotenone, antimycin), or between wells cultured overnight in their treatment conditions (aspartate, oligomycin, FCCP). The latter conditions were used due to solubility constraints (aspartate) or kinetic constraints of the compound (oligomycin). These measurements were then subtracted from oxygen consumption measurements following addition of high dose rotenone and antimycin treatment (2 μM each) to determine the mitochondria specific oxygen consumption rate. Following measurements, the number of cells in the wells was counted, averaged for each treatment condition, and the mitochondrial oxygen consumption rates were normalized to 1E5 cells.
# 143B cells [2] = test: Measurement of NAD+/NADH (NAD/NADH Glo) in 143B cells with respiration inhibitors; settings: 143B cells, ETC inhibitors plus AKB, 6 hours
# Protocol: NAD^+/NADH measurements were done using a modified version of manufacturer instructions of NAD/NADH Glo Assay (Promega). Cells were plated and treated as for proliferation assays and cell extracts were taken 6 hours after treatment. For extraction, cells were quickly washed 3 times in ice cold PBS, extracted in 100 μL ice cold lysis buffer (1% Dodecyltrimethylammonium bromide (DTAB) in 0.2 N NaOH diluted 1:1 with PBS), and immediately frozen at −80° C. To measure NADH, 20 μL of sample was moved to PCR tubes and incubated at 75° C. for 30 min, where the basic conditions will selectively degrade NAD^+. To measure NAD^+, 20 μL of the samples was moved to PCR tubes containing 20 μL lysis buffer and 20 μL 0.4 N HCl and incubated at 60° C. for 15 min, where acidic conditions will degrade NADH. Following incubations, samples were allowed to equilibrate to room temperature and then quenched by neutralizing with 20 μL 0.25 M Tris in 0.2 N HCl (NADH) or 20 μL 0.5 M Tris base (NAD^+). Manufacturer instructions were followed thereafter to measure NAD^+/NADH.
# 143B cells [3] = test: Mitochondrial oxygen consumption (Seahorse XF24), cells treated with respiration inhibitors; settings: ETC inhibitors plus AKB
# Protocol: Oxygen consumption rates were determined on a Seahorse Bioscience Extracellular Flux Analyzer (XF24). Cells were plated in Seahorse Bioscience 24 well plates at 6E4 cells per well in 100 μL complete DMEM, allowed to attach for 1 hour, and 500 μl complete DMEM was added before overnight incubation. The following day cells were washed 2 times in assay media: DMEM without phenol red or pyruvate containing 0.5% dialyzed FBS and 0.1 mg/mL uridine at pH 7.4 and incubated in 500 μL of the same media for the assay.
# 143B cells [4] = test: Amino acid and TCA cycle metabolite GC-MS analysis, 143B cells
# Protocol: 143B and 143B CytB cells were seeded at 400,000 cells/well in 6 well dishes overnight. The following day, cells were washed 2 times in PBS and media was changed to proliferation assay media with or without the indicated treatments. […] Soluble content was then dried under nitrogen gas. Polar samples were derivatized and measured as detailed in (Lewis). Relative metabolite abundances were determined by integrating ion peak area (Metran) and normalized to norvaline internal extraction standard.
# [5] = cells without AKB supplementation compared to AKB replete cells
SMILES,IMP level (143B CytB cells; cells cultured without AKB compared to AKB replete cells),AMP level (143B CytB cells; [5]),GMP level (143B CytB cells; [5]),AMP/IMP ratio (143B CytB cells; upon AKB withdrawal),GMP/IMP ratio (143B CytB cells; upon AKB withdrawal),Mitochondrial oxygen consumption rate [1],Cellular NAD+/NADH ratio (143B cells [2]),O2 consumption (143B cells [3]),"Aspartate level with AKB treatment (143B cells [4]; 143B CytB cells and inhibitor-treated 143B cells, relative to untreated cells)","Intracellular aspartate levels (143B cells [4]; rotenone treated 143B cells, 24 hours, AKB or 1 mM asparagine)",AMP level (143B CytB cells; 143B CytB cells with aspartate),GMP level (143B CytB cells; 143B CytB cells with aspartate),IMP level (143B CytB cells; 143B CytB cells with aspartate)
"CCC(=O)C(=O)O [AKB, α-ketobutyrate]",increased levels,decreased,decreased,dramatically decrease,dramatically decrease,does not alter oxygen consumption,restored NAD^+/NADH,no effect on O2 consumption,"restored aspartate to levels comparable to, or higher than, untreated cells",increased intracellular aspartate,,,
N[C@@H](CC(=O)O)C(=O)O [aspartate],,,,,,neither increased mitochondrial oxygen consumption,,,,,restores AMP pools,not restored; also recorded: actually lower,relieves the accumulation of IMP
